The values that follow come from patent US10150757B2, “Quinazolinone derivatives as PARP inhibitors” (Janssen Pharmaceutica NV, priority 2004, dated 2018).

Bounds are passed on as bounds.

For the experiment, the target named is T1, TANK-2 enzyme (Homo sapiens, UniProt Q9H2K2).
T1 construct: made in house
T1 sequence (Q9H2K2 1-1166): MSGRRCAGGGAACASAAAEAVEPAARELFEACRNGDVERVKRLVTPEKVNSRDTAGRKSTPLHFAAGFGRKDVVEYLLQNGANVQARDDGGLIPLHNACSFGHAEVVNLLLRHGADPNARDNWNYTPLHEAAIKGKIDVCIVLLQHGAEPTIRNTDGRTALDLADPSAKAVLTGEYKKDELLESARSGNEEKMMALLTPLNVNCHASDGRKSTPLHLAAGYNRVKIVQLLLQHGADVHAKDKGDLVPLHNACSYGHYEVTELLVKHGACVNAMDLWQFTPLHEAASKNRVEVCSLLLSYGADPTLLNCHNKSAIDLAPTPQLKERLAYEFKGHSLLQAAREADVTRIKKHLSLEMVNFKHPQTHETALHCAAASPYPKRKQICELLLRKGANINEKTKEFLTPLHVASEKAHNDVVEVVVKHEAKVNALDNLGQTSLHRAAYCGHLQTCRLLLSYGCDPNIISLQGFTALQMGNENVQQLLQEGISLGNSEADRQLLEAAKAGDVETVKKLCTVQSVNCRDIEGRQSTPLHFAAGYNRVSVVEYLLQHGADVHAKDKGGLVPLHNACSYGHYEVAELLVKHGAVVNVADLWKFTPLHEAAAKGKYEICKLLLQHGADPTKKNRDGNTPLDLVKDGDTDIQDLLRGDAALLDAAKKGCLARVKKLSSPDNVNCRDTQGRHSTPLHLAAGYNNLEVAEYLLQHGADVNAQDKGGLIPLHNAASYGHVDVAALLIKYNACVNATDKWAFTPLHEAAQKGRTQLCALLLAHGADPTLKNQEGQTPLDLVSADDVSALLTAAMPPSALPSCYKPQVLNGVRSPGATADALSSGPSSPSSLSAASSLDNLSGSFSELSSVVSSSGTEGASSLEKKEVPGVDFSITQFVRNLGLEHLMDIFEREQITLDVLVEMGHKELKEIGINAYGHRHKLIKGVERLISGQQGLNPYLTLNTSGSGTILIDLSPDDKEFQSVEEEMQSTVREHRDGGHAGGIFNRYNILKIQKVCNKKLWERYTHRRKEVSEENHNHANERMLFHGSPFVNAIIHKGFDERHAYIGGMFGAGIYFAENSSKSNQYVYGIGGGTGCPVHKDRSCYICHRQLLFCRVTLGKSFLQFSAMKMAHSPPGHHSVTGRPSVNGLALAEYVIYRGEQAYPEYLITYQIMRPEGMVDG
Nature of the experiment: In vitro scintillation proximity assay (SPA) for TANK-2 inhibitory activity. It counts as biochemical. The settings on record: auto-poly(ADP-ribosyl)ation; 96-well plate results if available, otherwise 384-well; read-out: in vitro SPA assay TANK-2 pIC50 (converted). On the procedure: In Vitro Scintillation Proximity Assay (SPA) for TANK-2 Inhibitory Activity
Compounds of the present invention were tested in an in vitro assay based on SPA technology with Ni Flash plates (96 or 384 well).
In principle, the assay relies upon SPA technology for the detection of auto-poly(ADP-ribosyl)ation of TANK-2 protein using [^3H]-nicotinamide adenine dinucleotide ([^3H]-NAD^+) as ADP-ribosyl donor.
A stock solution of [^3H]-NAD^+/NAD was made by adding 64.6 μl of [^3H]-NAD^+ (0.1 mCi/ml, supplier: Perkin Elmer) and 46.7 μl NAD-stock (10.7 mM, stored at −20° C., supplier Roche) to 1888.7 μl assay buffer (60 mM Tris/HCl, pH 7.4; 0.9 mM DTT; 6 mM MgCl2). The TANK-2 enzyme was produced as described in EP1238063. 60 μl of assay buffer, together with 1 μl of compound in DMSO, 20 μl of [^3H]-NAD^+/NAD and 20 μl of TANK-2 enzyme (final concentration 6 μg/ml) was added per well into a 96-well Ni-coated flash plate (Perkin Elmer). After incubation of the mixture for 120 min. at room temperature, the reaction was terminated by adding 60 μl of stop solution (42.6 mg NAD in 6 ml H2O). The plates were covered with a plate sealer and placed in a TopCountNXT™ (Packard) for scintillation counting. Values were expressed as counts per minute (cpm). For each experiment, controls (containing TANK-2 enzyme and DMSO without compound), a blank incubation (containing DMSO but no TANK-2 enzyme or compound) and samples (containing TANK-2 enzyme and compound dissolved in DMSO) were run in parallel. All compounds tested were dissolved and eventually further diluted in DMSO. In first instance, compounds were tested at a concentration of 10^−5M. […] In each test, the blank value was subtracted from both the control and the sample values. The control sample represented maximal TANK-2 enzyme activity. For each sample, the amount of cpm was expressed as a percentage of the mean cpm value of the controls. When appropriate, IC50-values (concentration of the drug, needed to reduce the TANK-2 enzyme activity to 50% of the control) were computed using linear interpolation between the experimental points just above and below the 50% level. Herein the effects of test compounds are expressed as pIC50 (the negative log value of the IC50-value). As reference compounds, 3-aminobenzamide and 4-amino-1,8-naphthalimide were included to validate the SPA assay. Herein the assay was described using 96-well plates. In the assay using 384-well plates the same final concentrations were used and volumes were adapted.

Turning to `CCCCn1cc(C2CCN(CCCNc3nc4ccccc4c(=O)[nH]3)CC2)c2ccccc21` [Compound 28], the IC50 was more than 10 µM.
As to `O=c1[nH]c(NCCCN2CCN(c3n[nH]c4ccccc34)CC2)nc2ccccc12` [Compound 22], the IC50 is 8.45 µM.
Then `O=c1[nH]c(NCCN2CCC(c3n[nH]c4cc(F)ccc34)CC2)nc2ccc(Cl)cc12` [Compound 36], with more than 10 µM; and `CCc1cc2cc(CN3CCN(CCNc4nc5ccccc5c(=O)[nH]4)CC3)ccc2nc1OC` [Compound 3], with 1.77 µM.
Then `O=c1[nH]c(NCCN2CCC(Nc3n[nH]c(=O)c4ccccc34)CC2)nc2ccccc12` [Compound 33], with 0.938 µM.
Then `O=c1[nH]c(NCCCN2CCN(c3n[nH]c4cc(F)ccc34)CC2)nc2ccccc12` [Compound 27], with 7.96 µM; and `O=c1[nH]c(NCCN2CCN(c3nc4ccccc4c(=O)[nH]3)CC2)nc2ccccc12` [Compound 38], with 0.537 µM.
As to `Nc1c(Cl)cc(C(=O)NC2CCN(CCCNc3nc(O)c4ccccc4n3)CC2)c2c1CCO2` [Compound 45], the IC50 is more than 10 µM.
As for `CC1(C)Cc2c(N)c(Cl)cc(C(=O)NC3CCN(CCCNc4nc(O)c5ccccc5n4)CC3)c2O1` [Compound 4], the IC50 was more than 10 µM.
In the case of `O=c1nc(NCCCN2CCC(Nc3nccc4ccccc34)CC2)[nH]c2ccccc12` [Compound 40], the IC50 is more than 10 µM.
Take `O=c1[nH]c(NCCCN2CCC(c3n[nH]c4cc(F)ccc34)CC2)nc2ccccc12` [Compound 25]: the IC50 was more than 10 µM.
Then `O=c1[nH]c(NCCN2CCC(Nc3nc4ccccc4c(=O)[nH]3)CC2)nc2ccccc12` [Compound 30], with 0.794 µM.
`CC1(C)Cc2c(N)c(Cl)cc(C(=O)NC3CCN(CCCCNc4nc(O)c5ccccc5n4)CC3)c2O1` [Compound 5]: the IC50 was more than 10 µM.
For the compound `O=c1[nH]c(NCCN2CCN(c3n[nH]c4ccccc34)CC2)nc2ccc(Cl)cc12` [Compound 1], the IC50 is more than 10 µM.
For `O=c1[nH]c(NCCCN2CCC(c3noc4cc(F)ccc34)CC2)nc2ccccc12` [Compound 26], the IC50 was more than 10 µM.
The figure for `O=c1[nH]c(NCCN2CCN(c3n[nH]c4ccccc34)CC2)nc2cc(Cl)ccc12` [Compound 44] is more than 10 µM.
Then `Cc1ccc2nc(NCCN3CCN(c4n[nH]c5ccccc45)CC3)[nH]c(=O)c2c1` [Compound 43], with more than 10 µM; and `Cc1ccc2nc(NCCN3CCC(c4n[nH]c5cc(F)ccc45)CC3)[nH]c(=O)c2c1` [Compound 37], with more than 10 µM.
Then `O=c1[nH]c(NCCN2CCN(c3n[nH]c4cc(F)ccc34)CC2)nc2ccccc12` [Compound 41], with more than 10 µM; and `Cc1cccc2nc(NCCN3CCN(c4n[nH]c5ccccc45)CC3)[nH]c(=O)c12` [Compound 39], with more than 10 µM.
Regarding `O=c1[nH]c(NCCCN2CCC(c3c[nH]c4ccccc34)CC2)nc2ccccc12` [Compound 20], the IC50 was more than 10 µM.
With `O=c1[nH]c(NCCCN2CCN(c3nsc4ccccc34)CC2)nc2ccccc12` [Compound 24], the IC50 was more than 10 µM.
Then `O=c1[nH]c(NCCCN2CCC(n3c(=O)[nH]c4ccccc43)CC2)nc2ccccc12` [Compound 29], with more than 10 µM; and `CO[C@@H]1CN(CCCNc2nc(O)c3ccccc3n2)CC[C@@H]1NC(=O)c1cc(Cl)c(N)c2c1OCCC2` [Compound 6], with more than 10 µM.
Then `O=C(c1ccc(F)cc1)C1CCN(CCNc2nc3ccccc3c(=O)[nH]2)CC1` [Compound 46], with more than 10 µM.
For the compound `O=c1[nH]c(NCCN2CCC(c3n[nH]c4cc(F)ccc34)CC2)nc2cc(Cl)ccc12` [Compound 31], the IC50 was more than 10 µM.
The figure for `O=c1[nH]c(NCCCN2CCC(Nc3cccc4ccccc34)CC2)nc2ccccc12` [Compound 42] is more than 10 µM; for `CO[C@H]1CN(CCCNc2nc3ccccc3c(=O)[nH]2)CC[C@H]1NC(=O)c1cc(Cl)cc2c1OC(C)(C)C2` [Compound 18] it is more than 10 µM; for `O=c1[nH]c(NCCCN2CCC(O)(c3ccc(Cl)cc3)CC2)nc2ccccc12` [Compound 2] it is more than 10 µM.
On to `O=c1[nH]c(NCCN2CCC(c3n[nH]c4cc(F)ccc34)CC2)nc2ccccc12` [Compound 21], for which the IC50 is more than 10 µM.
The figure for `CO[C@@H]1CN(CCCNc2nc(O)c3ccccc3n2)CCN1NC(=O)c1cc(Cl)c(N)c2c1OC(C)(C)C2` [Compound 8] is more than 10 µM; for `Nc1c(Cl)cc(C(=O)OCC2CCN(CCNc3nc4ccccc4c(=O)[nH]3)CC2)c2c1OCCO2` [Compound 7] it is 0.746 µM.
Then `O=C(NC1CCN(CCCNc2nc3ccccc3c(=O)[nH]2)CC1)c1ccccc1` [Compound 23], with more than 10 µM.
